This note sets out measurements from patent US20060234909A1, “Compositions and methods for increasing drug efficiency” (priority 2003, published 2006).

The subject of assay [1] is MCF-7 cells. As to conditions: read-out: MCF7 (EC50 Ave) SA; MCF7, SA (soft agar).
For assay [2], the target named is Akt (Homo sapiens, UniProt P31749). Put plainly: Akt kinase assay (PKLight ATP utilization, substrate phosphorylation as % of parent peptide). On the set-up: purchased Upstate (Charlottesville, Va.) 14-276. Format: biochemical. As to the method: Another test may involve monitoring the consumption of ATP. For example, ATP concentrations at time 0 or after 4 hour incubation may be monitored by luciferase reaction (PKLight kit obtained from Cambrex Corporation, One Meadowlands Plaza, East Rutherford, N.J. 07073), which generate a luminescence readout in the presence of ATP. Assays are initiated by mixing a kinase and a peptide in the presence of 40 μM ATP. After 4 hour of incubation at 30° C., PKLight reagent is added and mixed well, and luminescence readout measured. The rate of peptide phosphorylation is then directly related to the rate of decrease in the observed luminescence. Based on the first test, linkers of appropriate lengths and peptides with an effective amount of kinase activity which may be expected to be retained in the drug conjugate may be found.
Human Src (#14-326) and Akt (#14-276) kinases were purchased from Upstate (Charlottesville, Va.). Kinase reactions were carried out in 50 μl kinase reaction cocktail (25 mM Tris-HCl, pH 7.5, 5 μM β-glycerophosphate, 2 mM DTT, 0.1 mM Na3VO4, 10 mM MgCl2, 1 mg/ml BSA, […], 0.5 to 1.0 units enzyme). Substrates (peptide or drug-peptide conjugate in […]) were added (25, 50 and 100 μM) and the reaction was incubated for 2-5 hours at 30° C. PKLight reagent (23 μl) (Cambrex BioSciences, Rockland, Me.) was mixed with […] of the above kinase reaction and ATP utilization relative to no substrate and no ATP controls was determined by measuring luminescence with a SpectraMax Gemini EM plate reader (Molecular Devices, Sunnyvale, Calif.). Peptide substrates for Src and Akt have been described. For examples, see Lou et al. Letters in Peptide Science, 2, 289-296 (1995); Lou et al. Bioorganic & Medicinal Chemistry, 4, 677-682 (1996); Alessi et al. FEBS Letters, 399, 333-338 (1996). Substrate phosphorylation potential was determined from the linear portion of the substrate concentration dose response as a percentage of the activity observed with the parent peptide used for drug conjugation.

Assay [3] deals with tubulin. Kind of assay: Fluorescence-based tubulin polymerization assay (MPA; enhancement for paclitaxel, inhibition for vinblastine). Format: biochemical. A digest of the protocol:
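Tubulin polymerisation was followed by fluorescence (ex 360/em 405 nm) with 1 mg/ml BSA in all assays. For paclitaxel conjugates, glycerol was omitted. Parent drugs and conjugates were tested at 0.75, 1.5, 3 and 10 micromolar final, and values come from the linear range of the dose responses.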

The subject of assay [4] is HT-29 colorectal carcinoma. Put plainly: Cytotoxicity assay (monolayer), HT-29.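 Further: monolayer cultures tested in triplicate, compound exposure for three days against DMSO vehicle controls, EC50 fitted from dose-response curves and averaged across all tests and lots.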 Format: cell-based. To be noted: HT29, ML (monolayer); read-out: HT29 (EC50 Ave) ML.
Assay [5] relates to HT-29 cells. As to conditions: read-out: HT29 (EC50 Ave) SA; HT29, SA (soft agar).
In assay [6] the test system is Normal human foreskin fibroblasts (HFF). As to conditions: read-out: HFF (EC50 Ave) ML; HFF, ML (monolayer).
Assay [7] has as its system MCF-7 breast carcinoma. Kind of assay: Cytotoxicity assay (monolayer), MCF-7.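 Further: cells treated 72 h with 6-8 compound doses versus DMSO vehicle controls, EC50 fitted by 4-parameter dose-response curves, averaged across all tests and lots.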 Format: cell-based. To be noted: MCF7, ML (monolayer); read-out: MCF7 (EC50 Ave) ML.
Assay [8] has as its system HUVEC. Kind of assay: Cytotoxicity assay (monolayer), HUVEC. Format: cell-based. To be noted: ML (monolayer), read-out: HUVEC (EC50 Ave) ML.

Primed or numbered codes have the meaning given here. * marks the point of attachment. 10Ca‑PXL = paclitaxel conjugated at C10 via a carbamate; 10Ca‑PXL″ = paclitaxel attached at C10 via carbamate; 3Am‑VBL = vinblastine (VBL) conjugate; 3Am‑VBL″ = vinblastine conjugate; PEG(11) = PEG(11) linker; DMAB = not defined here; 3Am = not defined here; Cbz = O=C(OCc1ccccc1)*; PEG(13) = PEG13 linker; Piv = CC(C)(C)C(=O)*; OBn = c1ccc(CO*)cc1; VBL = vinblastine

Akt, sequence (P31749 whole entry): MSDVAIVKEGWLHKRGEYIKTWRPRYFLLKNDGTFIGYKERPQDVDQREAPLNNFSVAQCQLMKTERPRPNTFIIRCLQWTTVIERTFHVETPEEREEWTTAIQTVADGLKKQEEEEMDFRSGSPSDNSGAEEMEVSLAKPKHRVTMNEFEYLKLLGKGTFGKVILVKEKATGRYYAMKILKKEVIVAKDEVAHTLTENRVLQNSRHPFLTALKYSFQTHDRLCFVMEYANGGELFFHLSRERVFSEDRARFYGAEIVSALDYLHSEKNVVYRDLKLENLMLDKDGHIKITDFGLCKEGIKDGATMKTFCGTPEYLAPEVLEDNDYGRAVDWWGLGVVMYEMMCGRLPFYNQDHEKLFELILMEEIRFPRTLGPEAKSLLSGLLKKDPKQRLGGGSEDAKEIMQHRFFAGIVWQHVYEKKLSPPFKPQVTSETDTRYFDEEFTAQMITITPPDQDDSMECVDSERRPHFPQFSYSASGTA

For the substance “Ac-RPRTSSF-PEG(13)-10Ca-PXL (N-acetyl; PEG(13) linker; paclitaxel conjugate)”, the EC50 in assay [1] is above 0.1 µM; in assay [4] it was above 0.1 µM; in assay [5] it was 0.02 to 0.1 µM; in assay [6], above 0.1 µM; in assay [7], above 0.1 µM; in assay [8] it was above 0.1 µM. Moreover, the “Ave. Akt Kinase Act.” value in assay [2] is given as “C (C>40)”. Besides, the “Ave. MPA Act.” value in assay [3] is on record as “C (C>80)”.
On to “BOC-RPRTSSF-PEG(11)-3Am-VBL (N-BOC; PEG(11) linker; vinblastine conjugate)”, for which, in assay [2], the “Ave. Akt Kinase Act.” value is recorded as “C (C>40)”. In addition, the “Ave. MPA Act.” value in assay [3] is listed as “C (C>80)”. In addition, the EC50 in assay [4], in assay [6], in assay [7] and in assay [8] was 0.02 to 0.1 µM each time.
Turning to “BOC-RPRTSSF-PEG(13)-10Ca-PXL (N-BOC; PEG(13) linker; paclitaxel conjugate)”, in assay [2], the “Ave. Akt Kinase Act.” value was “C (C>40)”. The “Ave. MPA Act.” value in assay [3] is on record as “C (C>80)”. The figures for the EC50 in assay [5], in assay [6] and in assay [8] were above 0.1 µM, 0.02 to 0.1 µM and above 0.1 µM, respectively.
For CBz-GRPRTSSFAE(Bzl)G-3Am-VBL, the EC50 in assay [1] was 0.02 to 0.1 µM; in assay [4], 0.02 to 0.1 µM; in assay [5], 0.02 to 0.1 µM; in assay [6], 0.02 to 0.1 µM; in assay [7] it was 0.02 to 0.1 µM; in assay [8] it was below 0.02 µM. Further, in assay [2], the “Ave. Akt Kinase Act.” value is “C (C>40)”. Further, in assay [3], the “Ave. MPA Act.” value is listed as “B (B=50-80)”.
With “CBz-GRPRTSSFAEG-3Am-VBL (Cbz-GRPRTSSFAEG-{3Am-VBL}; reading uncertain; also: printed as CBz-GRPRTSSFAEG-3Am-VBL)”, the “Ave. Akt Kinase Act.” value in assay [2] is reported as “C (C>40)”. In addition, the “Ave. MPA Act.” value in assay [3] was “C (C>80)”. The EC50 in assay [4], in assay [6], in assay [7] and in assay [8] was above 0.1 µM in each case.
“CBz-RPRTSSF-PEG(13)-10Ca-PXL (N-CBz; PEG(13) linker; paclitaxel conjugate)”: the EC50 in assay [1] was 0.02 to 0.1 µM; in assay [4], 0.02 to 0.1 µM; in assay [5], 0.02 to 0.1 µM; in assay [6] it was above 0.1 µM; in assay [7], above 0.1 µM; in assay [8], above 0.1 µM. For the same substance, the “Ave. Akt Kinase Act.” value in assay [2] is recorded as “C (C>40)”. For the same substance, the “Ave. MPA Act.” value in assay [3] is recorded as “C (C>80)”.
Take “CBz-RPRTSSF-PEG(13)-10Ca-PXL x (N-CBz; PEG(13) linker; paclitaxel conjugate; salt)”: the half-maximal effective concentration (EC50) in assay [1], in assay [4], in assay [5], in assay [6], in assay [7] and in assay [8] was above 0.1 µM in each case. In addition, the “Ave. Akt Kinase Act.” value in assay [2] is on record as “C (C>40)”. For the same substance, in assay [3], the “Ave. MPA Act.” value is on record as “C (C>80)”.
As to “CBz-RPRTSSF-PEG(29)-3Am-VBL (N-CBz; PEG(29) linker; vinblastine conjugate)”, the EC50 in assay [1], in assay [4], in assay [6], in assay [7] and in assay [8] was above 0.1 µM each time. Also, the “Ave. Akt Kinase Act.” value in assay [2] is “C (C>40)”. In assay [3], the “Ave. MPA Act.” value is on record as “B (B=50-80)”.
Consider “Ph(C═O)-RPRTSSF-PEG(11)-3Am-VBL (N-benzoyl; PEG(11) linker; vinblastine conjugate)”, for which the “Ave. Akt Kinase Act.” value in assay [2] is listed as “C (C>40)”. Moreover, the “Ave. MPA Act.” value in assay [3] is recorded as “C (C>80)”. Moreover, the EC50 in assay [4], in assay [6], in assay [7] and in assay [8] was 0.02 to 0.1 µM throughout.
For the substance “Pv-GRPRAAAFAEG-PEG(13)-10Ca-PXL (Piv-GRPRAAAFAEG-{PEG(13)-10Ca‑PXL}; also: 2 TFA salt)”, the EC50 in assay [1] was 0.02 to 0.1 µM; in assay [4], above 0.1 µM; in assay [5], 0.02 to 0.1 µM; in assay [6], above 0.1 µM; in assay [7], above 0.1 µM; in assay [8], above 0.1 µM. Further, the “Ave. Akt Kinase Act.” value in assay [2] is recorded as “C (C>40)”. For the same substance, the “Ave. MPA Act.” value in assay [3] was “C (C>80)”.
With “Pv-GRPRTSSFAE(Bzl)G-PEG(13)-10Ca-PXL (Piv-GRPRTSSFAE(OBn)G-{PEG(13)-10Ca‑PXL″})”, the EC50 in assay [1], in assay [4], in assay [5], in assay [6], in assay [7] and in assay [8] was above 0.1 µM throughout. Besides, the “Ave. Akt Kinase Act.” value in assay [2] is reported as “C (C>40)”. For the same substance, the “Ave. MPA Act.” value in assay [3] was “C (C>80)”.
As to “Pv-GRPRTSSFAE(DMAB)G-3Am-VBL (Piv-GRPRTSSFAE(DMAB)G-{3Am‑VBL″}; not fully specified; reading uncertain)”, the “Ave. Akt Kinase Act.” value in assay [2] was “C (C>40)”. The “Ave. MPA Act.” value in assay [3] is reported as “C (C>80)”. Further, the EC50 in assay [4], in assay [6], in assay [7] and in assay [8] was above 0.1 µM in each case.
Regarding “Pv-GRPRTSSFAEG-3Am-VBL (Piv-GRPRTSSFAEG-{3Am‑VBL}; also: 2 TFA salt)”, in assay [2], the “Ave. Akt Kinase Act.” value is reported as “C (C>40)”. For the same substance, the “Ave. MPA Act.” value in assay [3] is on record as “C (C>80)”. Further, the EC50 in assay [4], in assay [6], in assay [7] and in assay [8] was above 0.1 µM throughout.
“Pv-GRPRTSSFAEG-PEG(13)-10Ca-PXL (Piv-GRPRTSSFAEG-{PEG(13)-10Ca‑PXL}; also: TFA salt)”: the “Ave. Akt Kinase Act.” value in assay [2] is recorded as “C (C>40)”. In addition, in assay [3], the “Ave. MPA Act.” value was “C (C>80)”. Also, the EC50 in assay [4], in assay [6], in assay [7] and in assay [8] was above 0.1 µM each time.
Turning to “Pv-RSRTSSF-PEG(11)-3Am-VBL (Piv-RSRTSSF-{PEG(11)-3Am‑VBL}; also: 2 TFA salt)”, the “Ave. Akt Kinase Act.” value in assay [2] is listed as “C (C>40)”. Further, the “Ave. MPA Act.” value in assay [3] is given as “C (C>80)”. The EC50 in assay [4], in assay [6], in assay [7] and in assay [8] was above 0.1 µM throughout.

Broadly, the EC50 is the concentration needed to bring the measured effect to its halfway point.
